The source of these data is patent US9770026B2, “Substituted pyrimidine compound and uses thereof” (Shenyang Sinochem Agrochemicals R&D Co., Ltd., priority 2012, dated 2017).

One experiment has as its system cucumber downy mildew. The experiment in a line: protectant activity in vivo against cucumber downy mildew. The settings on record: for control effect against cucumber downy mildew (%): protectant activity.
Experiment [1] deals with Green peach aphids (Myzus Persicae Sulzer). Nature of the experiment: bioactivity test against green peach aphid, airbrush foliar spray. In kind it is in vivo. The settings on record: death rate after 48 hrs. The protocol: Compounds were dissolved in mixed solvent (acetone:methanol=1:1), and diluted to required concentration with water containing 0.1% of tween 80.
Diamond back moth, armyworm, peach aphid and carmine spider mite were used as targets and the method of spraying by airbrush was used for determination of insecticidal biassays.
Method: Filter papers were put in culture dishes (Diameter=6 cm), and water was dripped on filter papers for preserving moisture. Green peach aphids (Myzus Persicae Sulzer) were maintained on cabbage. Leaves (Diameter=3 cm) of approximately 15-30 aphids were put in the culture dishes. Bioactivity tests were used the method of Airbrush Foliar Spray, pressure=10 psi (0.7 kg/cm2), spray volume=0.5 mL. The studies were conducted at […] 25±1 C in incubator cabinets with 60±5% RH. Survey the survival aphids after 48 hrs and calculate the death rates.

A further experiment relates to wheat powdery mildew. Nature of the experiment: protectant activity in vivo against wheat powdery mildew.
For the next experiment, the system named is corn rust. The experiment in a line: protectant activity in vivo against corn rust.

`CCc1ncnc(NCCc2ccc(Oc3ccc(Cl)cc3Cl)nc2)c1Cl` [III-262]: the “control effect against cucumber downy mildew (%)” value in the experiment on cucumber downy mildew (25 mg/L), in the experiment with cucumber downy mildew (50 mg/L), with cucumber downy mildew (100 mg/L) and with cucumber downy mildew (400 mg/L) was 100% throughout. In addition, the “protectant activity against cucumber downy mildew in vivo” value in the experiment on cucumber downy mildew (25 ppm), in the experiment with cucumber downy mildew (50 ppm), in the experiment on cucumber downy mildew (100 ppm) and in the experiment with cucumber downy mildew (400 ppm) was 100% throughout. Moreover, the “control (test results against green peach aphid)” value in experiment [1] (100 ppm) and in experiment [1] (600 ppm) was 100% throughout. In addition, in the experiment on wheat powdery mildew (400 ppm), the “protectant activity against wheat powdery mildew in vivo” value came to 100%. The “control effect against corn rust (%)” value in the experiment with corn rust (0.4 mg/L, protectant activity) was determined as 60%; with corn rust (1.6 mg/L, protectant activity) it was 90%; in the experiment with corn rust (6.25 mg/L, protectant activity), 90%; in the experiment with corn rust (25 mg/L, protectant activity), 100%; in the experiment with corn rust (100 mg/L, protectant activity), 100%; in the experiment with corn rust (400 mg/L, protectant activity) it was 100%. The “protectant activity against corn rust in vivo” value with corn rust (25 ppm), with corn rust (100 ppm) and with corn rust (400 ppm) was 100% in each case.
Take `Cc1ncnc(NCCc2ccc(Oc3ccc(Cl)cc3Cl)nc2)c1Cl` [III-82]: the “control effect against cucumber downy mildew (%)” value came out at 98% with cucumber downy mildew (12.5 mg/L); 100% with cucumber downy mildew (25 mg/L); 100% with cucumber downy mildew (50 mg/L); 100% in the experiment with cucumber downy mildew (100 mg/L); 100% with cucumber downy mildew (400 mg/L). Also, the “protectant activity against cucumber downy mildew in vivo” value in the experiment on cucumber downy mildew (25 ppm), with cucumber downy mildew (50 ppm), in the experiment on cucumber downy mildew (100 ppm) and in the experiment on cucumber downy mildew (400 ppm) was 100% throughout. Besides, in experiment [1] (600 ppm), the “control (test results against green peach aphid)” value is on record as 100%. Moreover, the “protectant activity against wheat powdery mildew in vivo” value with wheat powdery mildew (400 ppm) was 100%. Also, the “protectant activity against corn rust in vivo” value with corn rust (400 ppm) was determined as 100%.
Turning to `Cc1ncnc(NCCc2ccc(Oc3ccc(C(F)(F)F)cc3Cl)nc2)c1Cl` [III-121], the “control effect against cucumber downy mildew (%)” value in the experiment with cucumber downy mildew (25 mg/L), in the experiment with cucumber downy mildew (50 mg/L), with cucumber downy mildew (100 mg/L) and in the experiment with cucumber downy mildew (400 mg/L) was 100% each time. Besides, the “protectant activity against cucumber downy mildew in vivo” value in the experiment on cucumber downy mildew (25 ppm), in the experiment with cucumber downy mildew (50 ppm), with cucumber downy mildew (100 ppm) and in the experiment with cucumber downy mildew (400 ppm) was 100% in each case. For the same compound, the “control (test results against green peach aphid)” value in experiment [1] (100 ppm) and in experiment [1] (600 ppm) was 100% throughout. Besides, the “protectant activity against wheat powdery mildew in vivo” value in the experiment on wheat powdery mildew (100 ppm) and in the experiment on wheat powdery mildew (400 ppm) was 100% each time.
Regarding `Cc1ncnc(NCCc2ccc(Oc3c([N+](=O)[O-])cc(Cl)cc3C(F)(F)F)cc2)c1Cl` [II-202], in the experiment with cucumber downy mildew (400 ppm), the “protectant activity against cucumber downy mildew in vivo” value came out at 100%.
On the same count and under the same terms, the same measure for `CCc1ncnc(NCCc2ccc(Oc3ccc(Cl)cc3C)nc2)c1Cl` [III-290]: 100%.
On to `Cc1nc(Cl)c(Cl)c(NCCc2ccc(Oc3cccc(Cl)c3)nc2)n1` [III-2526], for which the “protectant activity against cucumber downy mildew in vivo” value in the experiment on cucumber downy mildew (25 ppm), in the experiment on cucumber downy mildew (50 ppm), in the experiment on cucumber downy mildew (100 ppm) and in the experiment on cucumber downy mildew (400 ppm) was 100% in each case. The “protectant activity against corn rust in vivo” value with corn rust (400 ppm) amounted to 100%.
For the compound `Cc1ncnc(NCCc2ccc(Oc3ccc([N+](=O)[O-])c(Cl)c3C)cc2)c1Cl` [II-236], the “control effect against cucumber downy mildew (%)” value in the experiment with cucumber downy mildew (25 mg/L), in the experiment with cucumber downy mildew (50 mg/L), with cucumber downy mildew (100 mg/L) and in the experiment on cucumber downy mildew (400 mg/L) was 100% each time. Further, the “protectant activity against cucumber downy mildew in vivo” value in the experiment on cucumber downy mildew (25 ppm), with cucumber downy mildew (50 ppm), with cucumber downy mildew (100 ppm) and with cucumber downy mildew (400 ppm) was 100% in each case. Also, the “control (test results against green peach aphid)” value in experiment [1] (600 ppm) came to 100%.
For `Cc1nc(Cl)c(Cl)c(NCCc2ccc(Oc3cccc(C(F)(F)F)c3)nc2)n1` [III-2541], the “protectant activity against cucumber downy mildew in vivo” value with cucumber downy mildew (50 ppm), in the experiment with cucumber downy mildew (100 ppm) and in the experiment on cucumber downy mildew (400 ppm) was 100% throughout. The “protectant activity against wheat powdery mildew in vivo” value with wheat powdery mildew (400 ppm) was 100%.
As to `CCc1ncnc(NCCc2ccc(Oc3cc(Cl)ccc3Cl)nc2)c1Cl` [III-263], the “control effect against cucumber downy mildew (%)” value in the experiment with cucumber downy mildew (6.25 mg/L) amounted to 70%; in the experiment on cucumber downy mildew (12.5 mg/L) it was 98%; with cucumber downy mildew (25 mg/L), 100%; with cucumber downy mildew (50 mg/L), 100%; in the experiment with cucumber downy mildew (100 mg/L) it was 100%; in the experiment on cucumber downy mildew (400 mg/L), 100%. The “protectant activity against cucumber downy mildew in vivo” value in the experiment with cucumber downy mildew (25 ppm), with cucumber downy mildew (50 ppm), with cucumber downy mildew (100 ppm) and in the experiment on cucumber downy mildew (400 ppm) was 100% in each case. Further, in experiment [1] (600 ppm), the “control (test results against green peach aphid)” value was 100%. Moreover, the “protectant activity against wheat powdery mildew in vivo” value in the experiment on wheat powdery mildew (400 ppm) was found to be 100%.
Turning to `O=[N+]([O-])c1cc(Cl)ccc1Oc1ccc(CCNc2ncnc(C(F)F)c2Cl)cc1` [II-9058], the “protectant activity against cucumber downy mildew in vivo” value in the experiment on cucumber downy mildew (400 ppm) is on record as 100%. In addition, the “protectant activity against wheat powdery mildew in vivo” value in the experiment with wheat powdery mildew (400 ppm) is listed as 100%.
With `FC(F)(F)c1ccc(Oc2ccc(CNc3ncnc4ccccc34)cc2)nc1` [CK31, reference compound], the pest or weed control at 6.25 µg/mL in the experiment with wheat powdery mildew (Triticum aestivum, 168 h, read-out: control effect against wheat powdery mildew (%), 6.25 mg/L, protectant activity) stood at 0%; in the experiment with corn rust (Zea mays, 168 h, read-out: control effect against corn rust (%), 6.25 mg/L, protectant activity) it was 0%. Further, the pest or weed control at 25 µg/mL with wheat powdery mildew (Triticum aestivum, 168 h, read-out: control effect against wheat powdery mildew (%), 25 mg/L, protectant activity) came out at 0%; in the experiment on corn rust (Zea mays, 168 h, read-out: control effect against corn rust (%), 25 mg/L, protectant activity) it was 0%. Moreover, the pest or weed control at 100 µg/mL in the experiment on wheat powdery mildew (Triticum aestivum, 168 h, read-out: control effect against wheat powdery mildew (%), 100 mg/L, protectant activity) turned out to be 0%; with corn rust (Zea mays, 168 h, read-out: control effect against corn rust (%), 100 mg/L, protectant activity), 0%. For the same compound, the pest or weed control at 400 µg/mL in the experiment with wheat powdery mildew (Triticum aestivum, 168 h, read-out: control effect against wheat powdery mildew (%), 400 mg/L, protectant activity) is 0%; in the experiment with corn rust (Zea mays, 168 h, read-out: control effect against corn rust (%), 400 mg/L, protectant activity) it was 0%.
For `Cc1ncnc(NCCc2ccc(Oc3ncc(C(F)(F)F)cc3Cl)c(Cl)c2)c1Cl` [Compound I-1414], the “control (test results against green peach aphid)” value in experiment [1] (100 ppm) and in experiment [1] (600 ppm) was 100% in each case. Besides, the “protectant activity against wheat powdery mildew in vivo” value with wheat powdery mildew (100 ppm) and in the experiment with wheat powdery mildew (400 ppm) was 100% in each case.
For `Cc1nc(Cl)c(Cl)c(NCCc2ccc(Oc3ccccc3)nc2)n1` [III-2521], the “control effect against cucumber downy mildew (%)” value in the experiment on cucumber downy mildew (12.5 mg/L), in the experiment with cucumber downy mildew (25 mg/L), in the experiment with cucumber downy mildew (50 mg/L), in the experiment with cucumber downy mildew (100 mg/L) and with cucumber downy mildew (400 mg/L) was 100% throughout. The “protectant activity against cucumber downy mildew in vivo” value in the experiment with cucumber downy mildew (12.5 ppm), with cucumber downy mildew (25 ppm), in the experiment on cucumber downy mildew (50 ppm), in the experiment on cucumber downy mildew (100 ppm) and in the experiment with cucumber downy mildew (400 ppm) was 100% throughout. Also, the “protectant activity against corn rust in vivo” value in the experiment on corn rust (400 ppm) was 100%.
`Cc1ncnc(NCCc2ccc(Oc3cc(Cl)ccc3Cl)nc2)c1Cl` [III-83]: the “control (test results against green peach aphid)” value in experiment [1] (600 ppm) is 100%. Moreover, the “protectant activity against wheat powdery mildew in vivo” value in the experiment with wheat powdery mildew (400 ppm) is given as 100%. For the same compound, in the experiment with corn rust (400 ppm), the “protectant activity against corn rust in vivo” value turned out to be 100%.
In the case of `Cc1ncnc(NCCc2ccc(Oc3cc(Cl)cc(Cl)c3)cc2)c1Cl` [II-25], in the experiment with cucumber downy mildew (400 ppm), the “protectant activity against cucumber downy mildew in vivo” value worked out at 100%. Further, the “control (test results against green peach aphid)” value in experiment [1] (600 ppm) is reported as 100%. Also, in the experiment with wheat powdery mildew (400 ppm), the “protectant activity against wheat powdery mildew in vivo” value came out at 100%.
For `Cc1ncnc(NCCc2ccc(Oc3ncc(C(F)(F)F)cc3Cl)cc2)c1Br` [Compound I-1878], the “protectant activity against cucumber downy mildew in vivo” value in the experiment with cucumber downy mildew (400 ppm) worked out at 100%. Besides, the “control (test results against green peach aphid)” value in experiment [1] (10 ppm), in experiment [1] (100 ppm) and in experiment [1] (600 ppm) was 100% throughout. Besides, the “protectant activity against corn rust in vivo” value in the experiment with corn rust (400 ppm) turned out to be 100%.
As to `CCc1ncnc(NCCc2ccc(Oc3cccc(Cl)c3)nc2)c1Cl` [III-186], the “control (test results against green peach aphid)” value in experiment [1] (100 ppm) and in experiment [1] (600 ppm) was 100% in each case. Besides, the “protectant activity against wheat powdery mildew in vivo” value with wheat powdery mildew (400 ppm) came out at 100%. The “protectant activity against corn rust in vivo” value in the experiment with corn rust (400 ppm) is recorded as 100%.
